# From patent publication US20130252988A1, “COMPOSITIONS AND METHODS FOR TREATING MYELOFIBROSIS” (TARGEGEN, INC., priority 2010, published 2013)
# “Also recorded” adds a separate entry of the source. Counter-ions that a name gives are not always drawn.
# How the values were obtained:
# [1] = test system: subjects with myelofibrosis (constitutional symptoms); assay: Constitutional symptoms rated by subjects (early satiety, fatigue, night sweats, cough, pruritus); assay type: in vivo
# Excerpt: The data here reflected changes from symptoms present at baseline. […] Severity was rated by subjects on a scale of 1-10: 0=absent; 1-3=mild; 4-7=moderate; 8-10=severe. Improved=downgrade to absent or to mild or moderate from more severe rating at baseline.
# Symptoms were categorized as “absent” (score=0), “mild” (score=1-3). “moderate” (score=4-7), or “severe” (score=8-10).
# [2] = test system: subjects with myelofibrosis (palpable splenomegaly); assay: Palpable spleen size / splenomegaly response (IWG-MRT criteria); assay type: in vivo, human; set-up: Clinical improvement (IWG response), subjects by 20 weeks: reference not given here; settings: for Subjects with =50% decrease in palpable spleen size persistent for at least 8 weeks (Clinical Improvement, CI) / Subjects with a minimum 25% decrease in palpable spleen size: by cycle 6; for Subjects with a minimum 25% decrease in palpable spleen size: intent-to-treat; for Subjects with spleen response (CI): by cycle 12
# Experimental: Responses were measured every 4 weeks per International Working Group for MPN Research and Treatment (IWG-MRT) criteria (Tefferi A et al., Blood 108:1497-1503, 2006). Assessment of bone marrow histology was performed at baseline and every 24 weeks of therapy. Changes in JAK2V617F allele burden in the granulocyte fraction of peripheral blood were measured as previously described (Kittur J et al., Cancer 109:2279-2284, 2007); the assessments were at baseline and every 4 weeks during the first 6 cycles, and every 6th cycle of therapy in the extension study.
# WBC count = assay: Leukocytosis: WBC count; assay type: in vivo, human; settings: for Subjects who achieved a normal WBC count: following 6 cycles; for Subjects with normal WBC counts: following 12 cycles
# [3] = test system: IL-6, IL-8, IL-2 and TNF-a; assay: Cytokine levels, multiplexed sandwich ELISAs; assay type: in vivo, human
# Experimental: Samples for cytokine measurement were collected at baseline and every 4 weeks thereafter. Cytokine levels were measured using multiplexed sandwich ELISAs (Millipore, St. Charles, Mo.).
# [4] = MTD cohort, after 1 cycle (n=12)
# [5] = MTD cohort, after 1 cycle, 8 subjects at baseline
# [6] = MTD cohort, after 6 cycles (n=16)
# [7] = 680 mg/day starting dose (N=37)
# [8] = MTD cohort, subjects who completed 6 cycles
smiles,measurement,setting,value
"Cc1cnc(Nc2ccc(OCCN3CCCC3)cc2)nc1Nc1cccc(S(=O)(=O)NC(C)(C)C)c1 [TG101348, N-tert-butyl-3-[(5-methyl-2-{[4-(2-pyrrolidin-1-ylethoxy)phenyl]amino}pyrimidin-4-yl)amino]benzenesulfonamide dihydrochloride monohydrate]",Subjects who reported new onset of =1 symptom during the study,[1]; FIG. 4,18 subjects
same,Night sweats: subjects with complete resolution,"[1]; MTD cohort, after 1 cycle",64%
same,Cough: subjects reporting improvement,[1]; [4],75%
same,Cough: subjects with complete resolution,[1]; [4],67%
same,Pruritus: subjects with complete resolution,[1]; [5],50%
same,Pruritus: subjects with improvement,[1]; [5],75%
same,Early satiety: subjects with complete resolution,"[1]; MTD cohort, after 2 cycles (n=27)",56%
same,Night sweats: subjects with complete resolution,"[1]; MTD cohort, after 6 cycles (n=9)",89%
same,Fatigue: subjects reporting improvement,[1]; [6],63%
same,Fatigue: subjects with complete resolution,[1]; [6],25%
same,Effect on MF-associated constitutional symptoms,"[1]; early satiety, fatigue, cough, pruritus, night sweats, baseline versus last visit, dihydrochloride monohydrate","clinically significant benefit or resolution of constitutional symptoms; also recorded: able to improve the MF-associated constitutional symptoms; also recorded: remarkable activity against MF-associated constitutional symptoms, pruritus and cachexia"
same,Subjects with new-onset symptoms resolved by last follow-up visit,"[1]; of the 18 with new onset, FIG. 4",12 subjects
same,Pruritus in one subject,"[1]; subject with JAK2V617F-positive PMF, started at 680 mg/day",complete resolution of pruritus
same,"Clinical improvement (IWG response), subjects by 12 weeks",[2]; [7],56%
same,"Clinical improvement (IWG response), subjects by 20 weeks",[2]; [7],100%
same,Subjects who achieved clinical improvement based on reduction of palpable splenomegaly (IWG response),[2]; [7],49%
same,Complete response of splenomegaly,[2]; Example 2 conclusions,~30%
same,Proportion achieving =50% reduction in palpable splenomegaly,[2]; Example 2 conclusions,two-thirds
same,Mean (standard deviation) duration of spleen response per IWG-MRT criteria,[2]; MTD cohort,288 (±76) days
same,Median time to CI,"[2]; MTD cohort, range 41-170",113 days
same,Subjects in whom the spleen became non palpable,[2]; [8],31%
same,Subjects with =25% reduction in palpable spleen size,[2]; [8],90%
same,Subjects with =50% reduction in palpable spleen size,[2]; [8],66%
same,Subjects with JAK2V617F-negative MF who achieved CI,[2]; Three of 4 subjects who completed 6 cycles,75%
same,Median time to CI,"[2]; across doses, range 41 to 171",141 days
same,Patients with reduction in palpable spleen size of at least 50%,"[2]; at 3 months, 33 patients who started at =680 mg and completed at least 3 cycles, 22 patients",67%
same,Patients in whom the spleen became non-palpable,"[2]; at 3 months, 33 patients who started at =680 mg, 9 patients",27%
same,Relapse or disease progression,[2]; at the time of data collection (Example 2),no relapse or disease progression
same,"Subjects with =50% decrease in palpable spleen size persistent for at least 8 weeks (Clinical Improvement, CI)",[2]; MTD cohort,45%
same,Subjects with a minimum 25% decrease in palpable spleen size,[2]; MTD cohort,65%
same,"Subjects with =50% decrease in palpable spleen size persistent for at least 8 weeks (Clinical Improvement, CI)",[2]; overall,39%
same,Subjects with a minimum 25% decrease in palpable spleen size,[2]; overall (36 subjects),61%
same,Subjects with spleen response (CI),[2]; MTD cohort,50%
same,Subjects with spleen response (CI),[2]; overall,48%
same,Lowest starting dose at which CI was observed,[2]; in vivo,240 mg/day
same,Palpable spleen size after treatment,"[2]; one subject with JAK2V617F-positive PMF, started at 680 mg/day, 9 cm before",0 cm
same,Mean (standard deviation) duration of spleen response per IWG-MRT criteria,[2]; overall,315 (±129) days
same,Onset of spleen response,"[2]; rapid, generally seen within",≤ 2 cycles
same,Patients with a normal WBC count at last follow-up visit,"WBC count; Example 1, leukocytosis at baseline, started at =680 mg",70%
same,Subjects with normal WBC counts at follow-up visit,"WBC count; Example 2, baseline WBC count >11×10^9/L",73%
same,Anti-myeloproliferation activity: resolution of leukocytosis and thrombocytosis,WBC count; Example 2 conclusions,virtually all treated subjects experiencing complete resolution of leukocytosis and thrombocytosis
same,Subjects who achieved a normal WBC count,WBC count; MTD cohort (13 of 18),72%
same,Subjects who achieved a normal WBC count,WBC count; across doses (16 of 28 with baseline leukocytosis),57%
same,Subjects with normal WBC counts,WBC count; MTD cohort (10 of 17),59%
same,Subjects with normal WBC counts,WBC count; across doses (14 of 25),56%
same,Serum EPO and TPO levels relative to baseline,"[3]; after treatment initiation, data not shown",increases in serum EPO and to a lesser extent TPO levels
same,Absolute difference in IL-2 from baseline,"[3]; cycle 6, 1 subject (101-039)",-1827 pg/mL
same,Absolute difference in IL-6 from baseline,"[3]; cycle 6, 1 subject (101-039)",-4719 pg/mL
same,"Effect on levels of pro-inflammatory cytokines (IL-6, IL-2, IL-8, TNF-a)","[3]; relative to baseline during treatment, dihydrochloride monohydrate",no significant changes on cytokine levels; also recorded: minimal effect on serum levels of proinflammatory cytokines; also recorded: no consistent changes
